Consider nine compounds from ChEMBL document CHEMBL3244280, “Thiazolinone analogues of indolmycin with antiviral and antibacterial activity” (J Med Chem, 1978).

Converted amounts (≈) assume the structure as drawn. The source made the active and inactive calls. The calls are words filed in the database; no cut-off is given here.

The test system of data set [1] is Influenza A virus. The data set is described as follows: Antiviral activity against influenza A virus NWS/H0N1 infected in BHK cells by agar diffusion assay. The class given is functional. (In agar diffusion tests the substance spreads into inoculated agar from a disc or well.)
Data set [2] in a line: Cytotoxicity against BHK cells. The data set is classed as cell-based, Mesocricetus auratus. Particulars: hamster.
For data set [3], the system named is Coxsackievirus B1. As to the kind of experiment: Antiviral activity against Coxsackievirus B1 infected in human HeLa cells by agar diffusion assay. The class given is functional.
Data set [4] can be described thus: Cytotoxicity against human HeLa cells by neutral red assay. The class given is cell-based.
The subject of data set [5] is Influenza A virus. The data set is described as follows: Antiviral activity against influenza A virus NWS/H0N1 infected in BHK cells at 1 mg/ml by agar diffusion assay. The class given is functional. Conditions: read-out: IZ.
Data set [6] relates to Coxsackievirus B1. The data set is described as follows: Antiviral activity against Coxsackievirus B1 infected in human HeLa cells at 1 mg/ml by agar diffusion assay. The class given is functional. Particulars: Enterovirus B; read-out: IZ.
The test system of data set [7] is Bacillus subtilis. As to the kind of experiment: Antibacterial activity against Bacillus subtilis. The class given is functional.
The subject of data set [8] is Staphylococcus aureus. As to the kind of experiment: Antibacterial activity against Staphylococcus aureus Oxford. The class given is functional.
Data set [9] has as its system Staphylococcus aureus. As to the kind of experiment: Antibacterial activity against Staphylococcus aureus Russel. The data set is classed as functional.
The subject of data set [10] is Staphylococcus aureus. The data set is described as follows: Antibacterial activity against Staphylococcus aureus 1517. The class given is functional.
Data set [11] has as its system Enterococcus faecalis. As to the kind of experiment: Antibacterial activity against Streptococcus faecalis I. The data set is classed as functional.
For data set [12], the system named is Streptococcus pyogenes. As to the kind of experiment: Antibacterial activity against Streptococcus pyogenes CN10. The data set is classed as functional.
Data set [13] concerns Human alphaherpesvirus 1. As to the kind of experiment: Antiviral activity against Herpes simplex virus 1 infected in chick embryo fibroblasts by plaque reduction assay. The data set is classed as functional, organism-based.
Data set [14] has as its system Bacillus subtilis. The data set is described as follows: Antibacterial activity against Bacillus subtilis up to 200 ug/ml. The class given is functional, organism-based.
Data set [15] concerns Staphylococcus aureus. As to the kind of experiment: Antibacterial activity against Staphylococcus aureus Oxford up to 200 ug/ml. The class given is functional, organism-based.
Data set [16] deals with Staphylococcus aureus. As to the kind of experiment: Antibacterial activity against Staphylococcus aureus Russel up to 200 ug/ml. The data set is classed as functional, organism-based.
Data set [17] deals with Staphylococcus aureus. As to the kind of experiment: Antibacterial activity against Staphylococcus aureus 1517 up to 200 ug/ml. The data set is classed as functional, organism-based.
Data set [18] relates to Enterococcus faecalis. As to the kind of experiment: Antibacterial activity against Streptococcus faecalis I up to 200 ug/ml. The class given is functional, organism-based.
Data set [19] relates to Streptococcus pyogenes. As to the kind of experiment: Antibacterial activity against Streptococcus pyogenes CN10 up to 200 ug/ml. The data set is classed as functional, organism-based.
The subject of data set [20] is Influenza A virus. As to the kind of experiment: Antiviral activity against influenza A virus NWS/H0N1 infected in BHK cells up to 100 ug/ml by agar diffusion assay. The data set is classed as functional, organism-based.
A short description of data set [21]: Cytotoxicity against BHK cells up to 100 ug/ml by carbol fuschin assay. The class given is cell-based, Mesocricetus auratus. Conditions: hamster.
The subject of data set [22] is Coxsackievirus B1. The data set is described as follows: Antiviral activity against Coxsackievirus B1 infected in human HeLa cells up to 100 ug/ml by agar diffusion assay. The class given is functional, organism-based.
Data set [23] has as its system HeLa. The data set is described as follows: Cytotoxicity against human HeLa cells up to 100 ug/ml. The class given is cell-based.

For the compound `OC(c1ccccc1)c1nc2ccccc2[nH]1` (centres undefined), the PDD50 in data set [1] was over 100 µg/mL; in data set [3], 20 µg/mL. In addition, the figures for the MCC in data set [2] and in [4] were over 100 µg/mL and 100 µg/mL, respectively. Besides, the zone of inhibition at 1000 µg/mL in data set [5] is 0 mm; in data set [6] it was 24 mm.

For orientation: MIC means the lowest concentration found to suppress growth. As to `CNC1=NC(=O)C(Cc2c[nH]c3ccccc23)S1` (racemic), the MIC in [7] is over 200 µg/mL; in data set [8], 20 µg/mL (≈ 77.1 µM); in [9], 20 µg/mL (≈ 77.1 µM); in [10], 20 µg/mL (≈ 77.1 µM); in [11], 20 µg/mL (≈ 77.1 µM); in [12] it was 200 µg/mL (≈ 771 µM). Further, the PDD50 in [1] stood at 10 µg/mL; in [3], 100 µg/mL. For the same compound, the MCC in data set [2] is 30 µg/mL; in [4], over 100 µg/mL. Also, the result in data set [13] was inactive. For the same compound, the zone of inhibition at 1000 µg/mL in [5] was 14 mm; in data set [6], 9 mm.

For `CNC1=NC(=O)[C@H]([C@H](C)c2c[nH]c3ccccc23)S1` (racemic), the MIC in data set [7] worked out at 20 µg/mL (≈ 73.2 µM); in data set [8], 2 µg/mL (≈ 7.32 µM); in data set [9] it was 2 µg/mL (≈ 7.32 µM); in [10], 2 µg/mL (≈ 7.32 µM); in data set [11], 2 µg/mL (≈ 7.32 µM); in data set [12], 200 µg/mL (≈ 732 µM). In addition, the figures for the PDD50 in data set [1] and in [3] were 3 µg/mL and 5 µg/mL, respectively. The figures for the MCC in [2] and in data set [4] were 10 µg/mL and 30 µg/mL, respectively. The results for the zone of inhibition at 1000 µg/mL in [5] and in data set [6] were 36 mm and 29 mm, respectively.

With `CCNC1=NC(=O)[C@H]([C@H](C)c2c[nH]c3ccccc23)S1` (racemic), the MIC was determined as 200 µg/mL (≈ 696 µM) in [7]; 20 µg/mL (≈ 69.6 µM) in data set [8]; 20 µg/mL (≈ 69.6 µM) in data set [9]; 20 µg/mL (≈ 69.6 µM) in data set [10]; 20 µg/mL (≈ 69.6 µM) in [11]; 200 µg/mL (≈ 696 µM) in [12]. In addition, the PDD50 in [1] was 5 µg/mL; in data set [3], 10 µg/mL. The MCC in data set [2] was 10 µg/mL; in data set [4], over 100 µg/mL. Besides, the result in data set [13] was inactive. In addition, the results for the zone of inhibition at 1000 µg/mL in data set [5] and in data set [6] were 34 mm and 16 mm, respectively.

Regarding `C[C@H](c1c[nH]c2ccccc12)[C@@H]1SC(NCCO)=NC1=O` (racemic), the MIC in data set [7] was over 200 µg/mL; in data set [8], 200 µg/mL (≈ 659 µM); in [9] it was 200 µg/mL (≈ 659 µM); in [10], 200 µg/mL (≈ 659 µM); in [11] it was 200 µg/mL (≈ 659 µM); in data set [12], 200 µg/mL (≈ 659 µM). Further, the PDD50 was over 30 µg/mL in [1] and 16 µg/mL in [3]. Also, the MCC in [2] is 100 µg/mL; in data set [4] it was over 100 µg/mL. The result in data set [13] was inactive. The zone of inhibition at 1000 µg/mL was 8 mm in data set [5] and 20 mm in data set [6].

On to `C/N=C1/S[C@@H]([C@H](C)c2c[nH]c3ccccc23)C(=O)N1C` (racemic), for which the minimum inhibitory concentration (MIC) in data set [7] came out at 20 µg/mL (≈ 69.6 µM); in data set [8], 2 µg/mL (≈ 6.96 µM); in data set [9], 2 µg/mL (≈ 6.96 µM); in [10], 2 µg/mL (≈ 6.96 µM); in [11], 2 µg/mL (≈ 6.96 µM); in data set [12], 200 µg/mL (≈ 696 µM). In addition, the result in [14], in data set [15], in data set [16], in [17], in data set [18] and in [19] was inactive. Also, the outcome in data set [20], in data set [22] and in data set [13] was inactive. Besides, the PDD50 in data set [1] was determined as 1.2 µg/mL; in data set [3] it was 3 µg/mL. For the same compound, the MCC was 4 µg/mL in [2] and 12 µg/mL in [4]. Further, the Activity entry in data set [21] and in data set [23] was “Non-toxic” each time.

As for `CNC1=NC(=O)[C@@H]([C@H](C)c2c[nH]c3ccccc23)O1` (racemic), the MIC in [7] is over 200 µg/mL; in data set [8], 200 µg/mL (≈ 777 µM); in data set [9] it was 200 µg/mL (≈ 777 µM); in [10], 200 µg/mL (≈ 777 µM); in [11] it was 200 µg/mL (≈ 777 µM); in data set [12] it was over 200 µg/mL. In [1], this compound returned a PDD50 of over 100 µg/mL. Further, the MCC in [2] was over 100 µg/mL. The zone of inhibition at 1000 µg/mL in [5] and in data set [6] was 0 mm each time.

In the case of `CNC1=NC(=O)[C@H]([C@H](C)c2c[nH]c3ccccc23)O1` (racemic) [INDOMYCIN], the MIC amounted to 20 µg/mL (≈ 77.7 µM) in data set [7]; 2 µg/mL (≈ 7.77 µM) in data set [8]; 2 µg/mL (≈ 7.77 µM) in data set [9]; 2 µg/mL (≈ 7.77 µM) in [10]; 2 µg/mL (≈ 7.77 µM) in [11]; 200 µg/mL (≈ 777 µM) in data set [12]. In [1], this compound showed a PDD50 of over 100 µg/mL. The MCC in [2] was over 100 µg/mL. The zone of inhibition at 1000 µg/mL in data set [5] and in data set [6] was 0 mm throughout.

Take `NC(=O)c1ncn([C@@H]2O[C@H](CO)[C@@H](O)[C@H]2O)n1` [RIBAVIRIN]: the PDD50 in [1] was 1 µg/mL; in [3] it was over 100 µg/mL. Further, the MCC in data set [2] and in data set [4] was over 100 µg/mL throughout. Moreover, the zone of inhibition at 1000 µg/mL is 28 mm in data set [5] and 0 mm in data set [6].
